{"source": "paper PMC9454457", "about": "(Journal of Nuclear Medicine, 2022)", "key": {"[1]": {"experiment": "Lipophilicity, n-octanol-PBS distribution coefficient (logD7.4)", "type": "physicochemical", "conditions": "n-octanol/PBS pH 7.4", "method": "Approximately 1 MBq of the ^177Lu-labeled compound was dissolved in 1 mL of phosphate-buffered saline (pH 7.4) and n-octanol (v/v = 1/1). After stirring for 3 min at room temperature in a vortex mixer and subsequent centrifugation at 9,000 rpm for 5 min (Biofuge 15; Heraeus Sepatech GmbH), 200-μL aliquots of both layers were measured separately in a γ-counter. The experiment was repeated at least 5 times."}, "[2]": {"experiment": "In vitro metabolic stability in human plasma", "type": "in vitro ADME", "conditions": "37°C, 72 ± 2 h, n = 4", "method": "Metabolic stability in vitro was determined through a procedure published by Linder et al. that was slightly modified ([16]). Immediately after labeling, 200 μL of human plasma were added and the mixture was incubated at 37°C for 72 ± 2 h. Proteins were precipitated by treatment with ice-cold EtOH (150 μL) and ice-cold MeCN (450 μL), followed by centrifugation (13,000 rpm, 20 min). The supernatants were decanted and further centrifuged (13,000 rpm, 10 min) using a Costar Spin-X (Corning) centrifuge tube filter (0.45 μm). The filtrated plasma samples were analyzed using radio–RP-HPLC.\n(§1) FIGURE 2. Preclinical data of ^nat/177Lu-RM2 (red), ^nat/177Lu-NeoBOMB1 (gray), ^nat/177Lu-AMTG (green), and ^nat/177Lu-AMTG2 (blue). (A) Affinity data on PC-3 and T-47D cells (1.5 × 10^5 cells/mL/well) using 3-^125I-D-Tyr^6-MJ9 (0.2 nM/well) as radiolabeled reference (2 h, room temperature, Hanks’ balanced salt solution plus 1% bovine serum albumin [v/v]). (B) GRPR-mediated internalization (0.25 pmol/well) on PC-3 cells as percentage of applied activity (incubation at 37°C for 1 h, Dulbecco modified Eagle medium/F-12 plus 5% bovine serum albumin [v/v], 1.5 × 10^5 cells/mL/well). Data were corrected for nonspecific binding (10^−3 M ^natLu-RM2). (C) Lipophilicity at pH 7.4 (logD7.4). (D) Metabolic stability in vitro in human plasma (left) (37°C, 72 ± 2 h; n = 4), and metabolic stability in vivo in murine plasma (middle) and murine urine (right) at 30 min after injection (n = 3). Data are expressed as mean ± SD."}, "[3]": {"experiment": "In vivo metabolic stability in murine plasma and urine", "set-up": "species or system CB17-SCID mice", "conditions": "30 min after injection, n = 3", "method": "Approximately 30–40 MBq (1 nmol, 150 μL) of the ^177Lu-labeled compounds were injected into the tail vein of anesthetized CB17-SCID mice (n = 3). After euthanasia at 30 min after injection, blood and urine samples were collected. Blood proteins were precipitated by treatment with ice-cold MeCN (v/v = 1/1), followed by centrifugation (13,000 rpm, 20 min). The supernatants were decanted and further centrifuged (13,000 rpm, 10 min) using a Costar Spin-X centrifuge tube filter (0.45 μm). The filtrated plasma samples and the urine samples were analyzed using radio–RP-HPLC.\nas §1"}, "[4]": {"experiment": "Biodistribution in PC-3 tumor-bearing CB17-SCID mice", "type": "in vivo", "method": "A detailed description of tumor inoculation is provided in the supplemental materials. Approximately 2–5 MBq (100 pmol, 150 μL) of the ^177Lu-labeled GRPR ligands were injected into the tail vein of anesthetized (2% isoflurane) PC-3 tumor–bearing mice (biodistribution, n = 4; imaging, n = 1).\nFor biodistribution studies, organs were removed, weighed, and measured in a γ-counter (Perkin Elmer) after euthanasia at 24 h after injection.\nFor all competition studies, 3.62 mg/kg (40 nmol) of ^natLu-RM2 (10^−3 M in phosphate-buffered saline) were coadministered."}, "[5]": {"conditions": "30 min after injection; cited from earlier work"}, "GRPR [6]": {"biological_target": "T1, GRPR (Homo sapiens, UniProt P30550)", "T1 construct": "endogenous in cells; host or cells: PC-3 cells", "T1 sequence (P30550 whole entry)": "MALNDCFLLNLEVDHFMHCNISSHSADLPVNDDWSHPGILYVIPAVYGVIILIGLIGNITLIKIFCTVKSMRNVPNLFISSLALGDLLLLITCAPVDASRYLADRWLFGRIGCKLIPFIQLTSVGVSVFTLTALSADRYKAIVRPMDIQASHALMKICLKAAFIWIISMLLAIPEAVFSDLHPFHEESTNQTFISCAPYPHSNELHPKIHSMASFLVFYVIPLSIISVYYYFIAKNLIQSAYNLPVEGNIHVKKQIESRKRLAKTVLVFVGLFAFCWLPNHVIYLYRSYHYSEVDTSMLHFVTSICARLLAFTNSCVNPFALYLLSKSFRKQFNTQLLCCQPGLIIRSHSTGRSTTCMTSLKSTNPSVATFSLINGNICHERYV", "experiment": "Competitive binding (IC50) on PC-3 cells vs 3-125I-D-Tyr6-MJ9", "conditions": "2 h, room temperature, 3-125I-D-Tyr6-MJ9 0.2 nM/well, n = 3", "method": "Competitive binding studies were performed on both PC-3 and T-47D cells (1.5 × 10^5 cells in 1 mL/well) via incubation at room temperature for 2 h using 3-^125I-D-Tyr^6-MJ9 (0.2 nM/well) as a radiolabeled reference (n = 3). Internalization studies of the ^177Lu-labeled conjugates (1.0 nM/well) were performed on PC-3 cells (1.5 × 10^5 cells in 1 mL/well) at 37°C for 1 h (n = 6). Data were corrected for nonspecific binding (competition by 10^−3 M ^natLu-RM2).\nas §1"}, "GRPR [7]": {"biological_target": "T1, GRPR", "set-up": "method as in PMID 19671861, PMID 17262215", "conditions": "1 h in vitro; cited from earlier work"}}, "note": "Like-named read-outs stand apart in the source and are kept apart here."}
{"compound": "CC(C)CC(CC(C)C)NC(=O)[C@H](Cc1cnc[nH]1)NC(=O)CNC(=O)[C@@H](NC(=O)[C@H](C)NC(=O)[C@H](Cc1c[nH]c2ccccc12)NC(=O)[C@H](CCC(N)=O)NC(=O)[C@@H](Cc1ccccc1)NC(=O)COCC(=O)Nc1ccc(CNC(=O)CN2CCN(CC(=O)O)CCN(CC(=O)O)CCN(CC(=O)O)CC2)cc1)C(C)C", "note": "[^177Lu-NeoBOMB1, metal not drawn, reference compound]", "values": [{"measurement": "logD", "setting": "[1]", "result": "-0.57 ± 0.03"}, {"measurement": "Intact compound in human plasma in vitro", "setting": "[2]", "result": "61.9% ± 2.1%"}, {"measurement": "Intact tracer in murine plasma in vivo", "setting": "[3]", "result": "75.9% ± 0.6%"}, {"measurement": "Intact tracer in murine urine in vivo", "setting": "[3]", "result": "3.9% ± 1.3%"}, {"measurement": "tissue uptake at 24 h", "setting": "[4]; CB17-SCID, mouse, blood, intravenous, total radioactivity; 24 h after injection, 100 pmol, n = 4; read-out: Biodistribution, Blood", "result": "0.057 ± 0.027", "unit": "%ID/g"}, {"measurement": "tissue uptake at 24 h", "setting": "[4]; CB17-SCID, mouse, heart, intravenous, total radioactivity; 24 h after injection, 100 pmol, n = 4; read-out: Biodistribution, Heart", "result": "0.1 ± 0.03", "unit": "%ID/g"}, {"measurement": "tissue uptake at 24 h", "setting": "[4]; CB17-SCID, mouse, intestine, intravenous, total radioactivity; 24 h after injection, 100 pmol, n = 4; read-out: Biodistribution, Intestine", "result": "0.85 ± 0.05", "unit": "%ID/g"}, {"measurement": "tissue uptake at 24 h", "setting": "[4]; CB17-SCID, mouse, kidney, intravenous, total radioactivity; 24 h after injection, 100 pmol, n = 4; read-out: Biodistribution, Kidney", "result": "1.9 ± 0.72", "unit": "%ID/g"}, {"measurement": "tissue uptake at 24 h", "setting": "[4]; CB17-SCID, mouse, liver, intravenous, total radioactivity; 24 h after injection, 100 pmol, n = 4; read-out: Biodistribution, Liver", "result": "1.6 ± 0.62", "unit": "%ID/g"}, {"measurement": "tissue uptake at 24 h", "setting": "[4]; CB17-SCID, mouse, lung, intravenous, total radioactivity; 24 h after injection, 100 pmol, n = 4; read-out: Biodistribution, Lung", "result": 0.43, "unit": "%ID/g"}, {"measurement": "tissue uptake at 24 h", "setting": "[4]; CB17-SCID, mouse, muscle, intravenous, total radioactivity; 24 h after injection, 100 pmol, n = 4; read-out: Biodistribution, Muscle", "result": "0.01 ± 0.005", "unit": "%ID/g"}, {"measurement": "tissue uptake at 24 h", "setting": "[4]; CB17-SCID, mouse, pancreas, intravenous, total radioactivity; 24 h after injection, 100 pmol, n = 4; read-out: Biodistribution, Pancreas", "result": "8.48 ± 0.92", "unit": "%ID/g"}, {"measurement": "tissue uptake at 24 h", "setting": "[4]; CB17-SCID, mouse, spleen, intravenous, total radioactivity; 24 h after injection, 100 pmol, n = 4; read-out: Biodistribution, Spleen", "result": "1.94 ± 0.97", "unit": "%ID/g"}, {"measurement": "tissue uptake at 24 h", "setting": "[4]; CB17-SCID, mouse, stomach, intravenous, total radioactivity; 24 h after injection, 100 pmol, n = 4; read-out: Biodistribution, Stomach", "result": "1.29 ± 0.12", "unit": "%ID/g"}, {"measurement": "tissue uptake at 24 h", "setting": "[4]; CB17-SCID, mouse, tumor (PC-3), intravenous, total radioactivity; PC-3 tumor, 24 h after injection, 100 pmol, n = 4; read-out: Biodistribution, Tumor", "result": "7.23 ± 0.91", "unit": "%ID/g"}, {"measurement": "Fraction of intact tracer in murine blood", "setting": "[5]", "result": 90, "unit": "%"}]}
{"compound": "CC(C)C[C@H](NC(=O)C[C@H](O)[C@H](CC(C)C)NC(=O)[C@H](Cc1c[nH]cn1)NC(=O)CNC(=O)[C@@H](NC(=O)[C@H](C)NC(=O)[C@H](Cc1c[nH]c2ccccc12)NC(=O)[C@H](CCC(N)=O)NC(=O)[C@@H](Cc1ccccc1)NC(=O)CN1CCC(NC(=O)CN2CCN(CC(=O)O)CCN(CC(=O)O)CCN(CC(=O)O)CC2)CC1)C(C)C)C(N)=O", "note": "[^177Lu-RM2, metal not drawn, reference compound]", "values": [{"measurement": "Intact compound in human plasma in vitro", "setting": "[2]", "result": "38.7% ± 9.3%"}, {"measurement": "Intact tracer in murine plasma in vivo", "setting": "[3]", "result": "11.4% ± 3.7%"}, {"measurement": "Intact tracer in murine urine in vivo", "setting": "[3]", "result": "0.5% ± 0.1%"}, {"measurement": "tissue uptake at 24 h", "setting": "[4]; CB17-SCID, mouse, adrenal, intravenous, 100 pmol, total radioactivity, 24 h after injection, 100 pmol, n = 4; read-out: Biodistribution, Adrenal", "result": "0.8 ± 0.16", "unit": "%ID/g"}, {"measurement": "tissue uptake at 24 h", "setting": "[4]; CB17-SCID, mouse, blood, intravenous, 100 pmol, total radioactivity, 24 h after injection, 100 pmol, n = 4; read-out: Biodistribution, Blood", "result": "0.012 ± 0.001", "unit": "%ID/g"}, {"measurement": "tissue uptake at 24 h", "setting": "[4]; CB17-SCID, mouse, bone, intravenous, 100 pmol, total radioactivity, 24 h after injection, 100 pmol, n = 4; read-out: Biodistribution, Bone", "result": "1.31 ± 0.56", "unit": "%ID/g"}, {"measurement": "tissue uptake at 24 h", "setting": "[4]; CB17-SCID, mouse, kidney, intravenous, 100 pmol, total radioactivity, 24 h after injection, 100 pmol, n = 4; read-out: Biodistribution, Kidney", "result": "1.79 ± 0.05", "unit": "%ID/g"}, {"measurement": "tissue uptake at 24 h", "setting": "[4]; CB17-SCID, mouse, liver, intravenous, 100 pmol, total radioactivity, 24 h after injection, 100 pmol, n = 4; read-out: Biodistribution, Liver", "result": "0.45 ± 0.03", "unit": "%ID/g"}, {"measurement": "tissue uptake at 24 h", "setting": "[4]; CB17-SCID, mouse, muscle, intravenous, 100 pmol, total radioactivity, 24 h after injection, 100 pmol, n = 4; read-out: Biodistribution, Muscle", "result": "0.011 ± 0.011", "unit": "%ID/g"}, {"measurement": "tissue uptake at 24 h", "setting": "[4]; CB17-SCID, mouse, pancreas, intravenous, 100 pmol, total radioactivity, 24 h after injection, 100 pmol, n = 4; read-out: Biodistribution, Pancreas", "result": "0.43 ± 0.06", "unit": "%ID/g"}, {"measurement": "tissue uptake at 24 h", "setting": "[4]; CB17-SCID, mouse, tumor (PC-3), intravenous, 100 pmol, total radioactivity, PC-3 tumor, 24 h after injection, 100 pmol, n = 4; read-out: Biodistribution, Tumor", "result": "8.45 ± 0.19", "unit": "%ID/g"}]}
{"compound": "CC(C)C[C@H](NC(=O)C[C@H](O)[C@H](CC(C)C)NC(=O)[C@H](Cc1c[nH]cn1)NC(=O)CNC(=O)[C@@H](NC(=O)[C@H](C)NC(=O)[C@H](Cc1c[nH]c2ccccc12)NC(=O)[C@H](CCC(N)=O)NC(=O)[C@@H](Cc1ccc(O)c(I)c1)NC(=O)CN1CCC(N)CC1)C(C)C)C(N)=O", "note": "[cold counterpart of 3-^125I-D-Tyr^6-MJ9]", "values": [{"measurement": "IC50", "setting": "GRPR [6]", "result": "1.3 ± 0.4", "unit": "nM"}]}
{"compound": "DOTA-4-aminobenzoyl-Gln^7- Trp^8-Ala^9- Val^10- Gly^11- His^12- Leu^13-Met^14-NH2 [AMBA]", "values": [{"measurement": "Internalization rates", "setting": "GRPR [7]", "result": "more than 25%"}]}
